Laboratory results published in US20080064718A1, “INHIBITORS OF PROTEIN TYROSINE KINASE ACTIVITY” (priority 2006, published 2008).

How the values were obtained:
VEGF receptor KDR = biological target: T1, VEGF receptor KDR (Homo sapiens, UniProt P35968); test: In vitro receptor tyrosine kinase assay, VEGF receptor KDR (DELFIA); format: biochemical; conditions: GST-VEGFR2 806-1356, ATP 0.6 uM; read-out: VEGFR IC50
T1 construct: made in house; host or cells: Sf9 cells (Spodoptera frugiperda), recombinant baculovirus
From the text: In the case of VEGF receptor KDR a 1.6-kb cDNA corresponding to the catalytic domain of VEGFR2 or KDR (Genbank accession number AF035121 amino acid 806 to 1356) is cloned into the Pst I site of the pDEST20 Gateway vector (Invitrogen) for the production of a GST-tagged version of that enzyme.
The GST-VEGFR2806-1356 protein is expressed in Sf9 cells (Spodoptera frugiperda) upon infection with recombinant baculovirus construct.
The supernatant is loaded onto a GST-agarose column (Sigma) equilibrated with PBS pH 7.3. Following a four column volume (CV) wash with PBS pH 7.3+1% Triton X-100 and 4 CV wash with buffer B (50 mM Tris pH 8.0, 20% glycerol and 100 mM NaCl), bound proteins are step eluted with 5 CV of buffer B supplemented with 5 mM DTT and 15 mM glutathion. […] Final GST-VEGFR2806-1356 protein preparations concentrations are about 0.7 mg/ml with purity approximating 70%.

A549 = A549 inhibition of wound healing; format: cell-based; conditions: Homo sapiens; A549 cells; read-out: A549 INHIB WND ING IC50 UM
DU145 = DU145 scattering; format: cell-based; conditions: Homo sapiens, DU-145; DU145 cells; read-out: CMET DU145 SCATT HEAL- IC50 UM
c-Met = biological target: T2, c-Met (Homo sapiens, UniProt P08581); test: c-Met phosphorylation direct ELISA in MKN45 cells; format: cell-based; conditions: 3 h treatment
T2 construct: endogenous in cells; host or cells: MKN45 gastric carcinoma cells
Procedure: Alternatively, the following assay is used to determine inhibition of c-Met phosphorylation.
The c-Met receptor is expressed in numerous cancer cell lines derived from tumors of epithelial origin. In MKN45 gastric carcinoma cells the c-Met gene is amplified, resulting in several-fold overexpression of the receptor and its constitutive activation.
Cell treatments: MKN45 cells are seeded into wells of 96-well plates at a density of 3×10^4 cells/well in RPMI medium supplemented with 10% FBS. […] Inhibitors are added to the medium in triplicate wells at the indicated doses.
After an overnight protein binding incubation at 4° C., lysates are aspirated and wells are blocked for 1 h at 37° C. in TBST supplemented with 5% BSA. Plates are incubated with the primary antibodies anti-phospho-Tyrosine (Millipore, 4G10) diluted 1/15000 in TBST supplemented with 5% BSA for 1 h at room temperature. Plates are washed 3 times on a plate washer (SkanWasher, Molecular Devises), and incubated with the reporter antibody […] (Sigma) diluted 1/15000 in TBST supplemented with 5% BSA, for 1 h at room temperature. Plates are washed 3 times with TBST using on a plate washer and subsequently incubated with chemiluminescent substrate solution (ECL, Roche). Luminescence signal is captured on a Polar Star Optima apparatus (BMG LabTech).
Average values of the triplicate samples are used to prepare IC50 curves using a 4-parameter fit model. These curves are calculated using, for example, GraFit 5.0 software. For assay standardization purpose, an internal control is included on each experimental test plate.

[1] = biological target: recombinant human c-Met/HGF receptor (Homo sapiens, UniProt P08581); test: In vitro receptor tyrosine kinase assay, c-Met/HGF receptor (DELFIA)
Sequence of recombinant human c-Met/HGF receptor (P08581 1078-1337): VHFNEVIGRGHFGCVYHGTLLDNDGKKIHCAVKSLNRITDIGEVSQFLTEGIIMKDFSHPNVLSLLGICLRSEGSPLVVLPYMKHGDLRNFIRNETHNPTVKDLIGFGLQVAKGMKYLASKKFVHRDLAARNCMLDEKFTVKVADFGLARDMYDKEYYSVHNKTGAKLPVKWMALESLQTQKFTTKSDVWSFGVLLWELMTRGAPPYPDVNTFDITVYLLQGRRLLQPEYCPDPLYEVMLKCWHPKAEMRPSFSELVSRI

T2 sequence (P08581 25-1390): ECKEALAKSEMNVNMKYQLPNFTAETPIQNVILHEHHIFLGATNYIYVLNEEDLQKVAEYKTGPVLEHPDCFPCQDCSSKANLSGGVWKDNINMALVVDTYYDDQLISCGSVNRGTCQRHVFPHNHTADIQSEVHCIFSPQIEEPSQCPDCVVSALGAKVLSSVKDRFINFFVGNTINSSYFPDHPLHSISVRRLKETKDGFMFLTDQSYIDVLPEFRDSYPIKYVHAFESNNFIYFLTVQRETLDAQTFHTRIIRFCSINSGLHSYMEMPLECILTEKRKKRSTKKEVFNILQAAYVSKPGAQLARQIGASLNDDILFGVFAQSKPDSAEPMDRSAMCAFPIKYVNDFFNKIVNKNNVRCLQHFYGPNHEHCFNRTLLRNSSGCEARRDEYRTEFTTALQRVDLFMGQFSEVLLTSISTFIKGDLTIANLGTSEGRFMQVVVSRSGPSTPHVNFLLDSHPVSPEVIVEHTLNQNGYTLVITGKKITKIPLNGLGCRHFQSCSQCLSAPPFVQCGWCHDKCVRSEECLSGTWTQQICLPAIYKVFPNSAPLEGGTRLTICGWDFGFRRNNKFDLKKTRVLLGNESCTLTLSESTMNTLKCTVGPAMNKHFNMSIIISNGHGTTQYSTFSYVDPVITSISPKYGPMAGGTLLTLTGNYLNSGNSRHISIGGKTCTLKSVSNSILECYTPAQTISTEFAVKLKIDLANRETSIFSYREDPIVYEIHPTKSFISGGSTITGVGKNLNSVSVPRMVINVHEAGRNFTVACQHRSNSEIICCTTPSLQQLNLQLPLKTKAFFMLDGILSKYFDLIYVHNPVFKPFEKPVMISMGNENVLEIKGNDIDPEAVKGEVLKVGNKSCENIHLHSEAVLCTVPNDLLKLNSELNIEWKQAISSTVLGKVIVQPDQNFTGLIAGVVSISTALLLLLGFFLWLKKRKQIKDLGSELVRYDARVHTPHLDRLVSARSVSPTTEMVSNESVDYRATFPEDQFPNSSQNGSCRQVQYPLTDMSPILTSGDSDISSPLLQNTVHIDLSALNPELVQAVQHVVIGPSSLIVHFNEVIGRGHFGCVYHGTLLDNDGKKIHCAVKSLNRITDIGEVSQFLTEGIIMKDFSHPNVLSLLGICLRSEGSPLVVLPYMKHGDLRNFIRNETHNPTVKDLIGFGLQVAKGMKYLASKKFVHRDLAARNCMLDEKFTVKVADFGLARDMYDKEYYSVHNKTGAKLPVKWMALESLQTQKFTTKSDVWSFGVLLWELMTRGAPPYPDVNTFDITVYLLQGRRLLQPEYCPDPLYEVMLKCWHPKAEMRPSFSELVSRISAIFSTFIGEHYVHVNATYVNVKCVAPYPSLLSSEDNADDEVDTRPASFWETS
T1 sequence (P35968 806-1356): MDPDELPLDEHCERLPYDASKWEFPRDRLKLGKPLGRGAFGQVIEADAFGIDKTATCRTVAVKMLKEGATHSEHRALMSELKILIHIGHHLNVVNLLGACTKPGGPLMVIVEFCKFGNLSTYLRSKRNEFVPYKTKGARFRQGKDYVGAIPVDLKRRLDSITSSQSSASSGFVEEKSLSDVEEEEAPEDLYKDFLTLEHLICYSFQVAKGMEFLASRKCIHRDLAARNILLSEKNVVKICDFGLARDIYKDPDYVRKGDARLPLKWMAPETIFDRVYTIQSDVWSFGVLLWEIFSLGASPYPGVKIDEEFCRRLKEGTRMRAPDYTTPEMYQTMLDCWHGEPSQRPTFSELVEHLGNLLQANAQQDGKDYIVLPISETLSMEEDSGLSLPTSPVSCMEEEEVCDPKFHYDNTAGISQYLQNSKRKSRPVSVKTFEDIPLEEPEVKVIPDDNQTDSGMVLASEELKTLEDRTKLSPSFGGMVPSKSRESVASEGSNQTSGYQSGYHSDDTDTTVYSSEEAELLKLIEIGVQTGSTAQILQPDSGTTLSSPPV

SMILES	IC50 (VEGF receptor KDR) [nM]	IC50 (A549) [nM]	IC50 (DU145) [nM]	IC50 (c-Met) [nM]	IC50 [1] [nM]
CCn1cnc(-c2cc3nccc(Oc4ccc(N(C)C(=O)N5CCN(c6ccccc6)C5=O)cc4F)c3s2)c1	< 250	> 1000	> 1000	500 to 1000	500 to 1000
COCCNCc1cccc(-c2cc3nccc(Oc4ccc(NC(=O)N5CCN(c6ccccc6)C5=O)cc4F)c3s2)c1	< 250	250 to 500	< 250	< 250	< 250
